Measurements reported in PMC4628094, “In Vitro Assessment of Uptake and Lysosomal Sequestration of Respiratory Drugs in Alveolar Macrophage Cell Line NR8383” (Pharmaceutical Research, 2015).
Like-named read-outs stand apart in the source and are kept apart here. Marks after values point to notes of the source that are not given here.

What was measured:
[1] = tested on: NR8383 cell line and granule fraction (containing lysosomes); conditions: NH4Cl 10 mM, drug 50 µM, ref (12), cited from earlier work
[2] = Physicochemical properties, experimental literature values (Table I); conditions: classification in Table I
[3] = Drug uptake in NR8383 at 37 and 4°C (CLuptake, CLdiff, Kp); conditions: rat
Method: (§1) The studies were carried out in a 24-well plate format and the in vitro conditions were optimised in terms of cell detachment method from culture flasks, coating type of 24-well plates, seeding density, culturing time and drug incubation time points. Briefly, for cell detachment, gentle scraping versus Mg^2+-Ca^2+ free DPBS treatment of cells in culture flasks were tested. Considering the semi-adherent nature of AMs, cell seeding into non-coated, collagen-I and poly-D-lysine coated 24-well plates was investigated for cell attachment, distribution in the wells and detachment following DPBS washes during the uptake experiments. In addition, seeding densities of 0.36 and 0.72 × 10^6 cells per well were assessed with respect to cell attachment, confluency following culture (plating efficiency) and potential cell detachment following DPBS washes. Culturing time ranging from 4 to 24 h was investigated for optimal cell attachment before carrying out uptake experiments. Uptake rate and Kp data were normalised by cell number determined indirectly by measuring the amount of protein in samples by bicinchoninic acid (BCA) protein assay (Thermo Scientific, Loughborough, UK). Following the optimisation, detachment of NR8383 from cell culture flasks was performed by gentle scraping prior to cell counting and seeding into collagen-I coated 24-well plates at 0.5 × 10^6 cells per well. Cells were cultured for 16 h at 37°C, 5% CO2 (CO2 incubator, MCO-17AIC, Sanyo Biomedical, Loughborough, UK) before uptake studies performed over 1 to 10 min period.
(§2) The drug uptake in NR8383 corresponding to these conditions was described by total uptake (CLuptake) and passive diffusion (CLdiff) clearance terms, respectively. […] Substrate solutions were prepared by dilution of the stock solutions in DPBS resulting in final DMSO content < 1%. Uptake studies were performed in the presence of 1 mM ABT, a nonspecific P450 inhibitor, in order to avoid any potential impact of phase I metabolism. […] Following microscopy, the CGM was removed, cells were washed twice with 800 μL of either pre-warmed or ice-cold DPBS (for experiments at 37 and 4°C, respectively) and pre-incubation with 500 μL of pre-warmed or ice-cold ABT/DPBS was carried out for 20 min. Where ABT pre-treatment was not necessary, cell monolayers were treated with 500 μL of DPBS only. Once pre-incubation buffer was removed from the cell monolayers, incubations were started by addition of 400 μL of substrate solution (pre-warmed or ice-cold) in each well. Each substrate was incubated with the cells for 1, 2, 5 and 10 min and each time point at 37°C and 4°C. For 37°C experiments, incubation was carried out on a dry heater block maintained at 37°C throughout the experiment (Tecam Dri-block DB-3, Tecam, Princeton, NJ) and for 4°C experiments, the procedure was carried out on ice. Incubation with substrate was stopped by removal of the media with drug solution and washing the monolayers three times with 800 μL ice-cold DPBS. The back-diffusion of the drug from the cell into the medium was considered to be negligible under these conditions. The removed incubation media were retained for the measurement of drug medium concentrations and subsequent determination of Kp for each drug. The cells were lysed by addition of 200 μL ice-cold deionised water; cell lysates were kept at −20°C overnight and then processed further for LC-MS/MS analysis. Experiments were performed on three or more separate occasions for each drug investigated. […] The amount of protein per well was measured using a BSA calibration curve and absorbances read at 562 nm (S22 Boeco UV-Visible Spectrophotometer, Hamburg, Germany).

NR8383 cells [4] = test: as above; conditions: NR8383, 5 μM; for Contribution of passive (%): CLdiff relative to CLuptake
Method: as §1, §2

[5] = Lysosomal sequestration studies in NR8383 with NH4Cl, monensin and nigericin; conditions: rat; for Kp at 10 min, 5 μM: NR8383, 5 μM drug; for Kp at 10 min, 20 µM: NR8383, 20 µM drug
Method: (§3) The extent of accumulation of drugs in lysosomes was assessed using the same uptake methodology, as described above in the absence and presence of NH4Cl and ionophores, monensin and nigericin. […] In addition, a range of incubation conditions was explored, including pre-incubation and co-incubation alone and combined together. Once the conditions were optimised, further experiments were performed with 20 mM NH4Cl co-incubated with investigated drugs. […] For incubations with monensin and nigericin, all drugs were prepared at 5 μM concentration and the incubations were carried out for 5 min (single time point). Following the treatment of the cell monolayers with drug alone or drug with the agents mentioned, incubations were stopped by washing of the cells with ice-cold DPBS as described above, followed by cell lysis in deionised water. All incubations were carried out in duplicate and experiments were performed for three separate occasions. The removed incubation media were retained for the measurement of drug concentrations and subsequent determination of Kp for each compound. Analysis of samples in LC-MS/MS was performed after cells were kept at −20°C overnight.
(§4) Kp and CLuptake were determined as described above for each drug both under control condition and in the presence of a chemical agent affecting the pH gradient between cytosol and lysosomes. The reduction in Kp and CLuptake of each drug in the presence of the chemical agents was expressed as a percentage relative to control and used as an indicator of the extent of lysosomal sequestration. A 50% reduction in both parameters was set as a cut-off for lysosomal accumulation, while also taking into account the physicochemical properties of the compounds (Table I) and the uncertainty associated with the experimental data.
(§5) The in vitro parameters were calculated on at least three separate occasions and the mean data were reported. When assessing the extent of lysosomal sequestration, the control and chemical agent treated cells were compared using the two-tailed, paired t-test in order to determine statistically significant difference between the two conditions. Values were reported as significant when p < 0.05.

NR8383 cells [6] = test: as above; conditions: for % Reduction in Kp by NH4Cl: NH4Cl 20 mM; for reduction in Kp in the presence of chemical agents (summary in Discussion): NR8383, NH4Cl, monensin, nigericin
Method: as §3, §4, §5

[7] = tested on: Lung granule fraction containing lysosomes from male Wistar rats; parameters: method as in ref (6) (a number printed in a supplementary file, which may have a reference list of its own: not looked up in the article's list); conditions: NH4Cl 10 mM, drug 1 µM, 10 min; ref (6); cited from earlier work
[8] = cited from earlier work
[9] = tested on: Lung tissue slices from male Wistar rats; parameters: method as in ref (8) (a number printed in a supplementary file, which may have a reference list of its own: not looked up in the article's list); conditions: drug 5 µM, 60 min, ref (8), cited from earlier work; for Reduction in total uptake (%): NH4Cl 20 mM
[10] = tested on: Lung tissue slices from male Wistar rats; parameters: method as in ref (5) (a number printed in a supplementary file, which may have a reference list of its own: not looked up in the article's list); conditions: NH4Cl 20 mM, drug 5 µM, 60 min, ref (5); cited from earlier work
[11] = tested on: Lung tissue slices from male Wistar rats; parameters: method as in ref (9) (a number printed in a supplementary file, which may have a reference list of its own: not looked up in the article's list); conditions: drug 5 µM, 60 min, ref (9), cited from earlier work; for Reduction in total uptake (%): NH4Cl 20 mM
[12] = tested on: Lung tissue slices from male Wistar rats; parameters: method as in ref (14) (a number printed in a supplementary file, which may have a reference list of its own: not looked up in the article's list); conditions: monensin 10 µM, drug 5 µM, 60 min, ref (14); cited from earlier work
NR8383 cells [13] = test: LysoTracker Red (LTR) confocal assessment of lysosomal sequestration in NR8383; assay type: cell-based, rat; conditions: NH4Cl 20 mM, monensin 5 μM, nigericin 10 μM with 200 nM LTR
[14] = tested on: Brain slices from male Wistar rats; parameters: method as in ref (10) (a number printed in a supplementary file, which may have a reference list of its own: not looked up in the article's list); conditions: drug 5 µM, 60 min, ref (10), cited from earlier work; for Reduction in total uptake (%): NH4Cl 20 mM; for Reduction of total uptake (%): monensin 10 µM
[15] = tested on: Liver tissue slices from male Wistar rats; parameters: method as in ref (9) (a number printed in a supplementary file, which may have a reference list of its own: not looked up in the article's list); conditions: drug 5 µM, 60 min, ref (9), cited from earlier work; for Reduction in total uptake (%): NH4Cl 20 mM
[16] = tested on: Liver tissue slices from male Wistar rats; parameters: method as in ref (14) (a number printed in a supplementary file, which may have a reference list of its own: not looked up in the article's list); conditions: monensin 10 µM, drug 5 µM, 60 min, ref (14); cited from earlier work
[17] = tested on: Liver tissue slices from male Wistar rats; parameters: method as in ref (8) (a number printed in a supplementary file, which may have a reference list of its own: not looked up in the article's list); conditions: drug 5 µM, 60 min, ref (8), cited from earlier work; for Reduction in total uptake (%): NH4Cl 20 mM
[18] = tested on: Lung tissue slices from male Sprague-Dawley rats; conditions: monensin 10 µM, desipramine, diazepam 5 µM, chloroquine, thiopental 10 µM, 60 min, ref (3); cited from earlier work
[19] = NR8383 cells, Kp (cell-to-medium concentration ratio), NR8383, 5 μM, 37°C, 10 min
[20] = NR8383 cells, Kp + NH4Cl, 20 mM NH4Cl co-incubated, 10 min
[21] = NR8383 cells, Kp + NH4Cl, 20 mM NH4Cl
[22] = NR8383 cells, Kp Control, control
[23] = experimental value, ref ([21])-([30]) per drug, Table I

CC[C@H]1OC(=O)[C@H](C)[C@@H](O[C@H]2C[C@@](C)(OC)[C@@H](O)[C@H](C)O2)[C@H](C)[C@@H](O[C@@H]2O[C@H](C)C[C@H](N(C)C)[C@H]2O)[C@](C)(O)C[C@@H](C)CN(C)[C@H](C)[C@@H](O)[C@]1(C)O [Azithromycin]
Reduction in total uptake (%) ([1]; Granule, after subcellular fractionation, 30 min): 72%
Reduction in total uptake (%) ([1]; before subcellular fractionation, azithromycin 120 min, clarithromycin 60 min): 97%

CCCC1O[C@@H]2C[C@H]3[C@@H]4CCC5=CC(=O)C=C[C@]5(C)[C@H]4[C@@H](O)C[C@]3(C)[C@]2(C(=O)CO)O1 (stereo partly shown) [Budesonide]
Acid–base Property [2]: Neutral
Kp at 10 min, 5 μM [3, 19]: 37.6 ± 11.4
Contribution of passive (%) (NR8383 cells [4]): 97.2%
Kp at 10 min, 5 μM [5, 20]: 28.1 ± 7.12
Kp at 10 min, 20 µM [5, 21]: 31 ± 12
Kp at 10 min, 5 μM [5, 22]: 31.5 ± 8.46
Kp at 10 min, 20 µM [5, 22]: 34 ± 12.5
% Reduction in Kp by NH4Cl (NR8383 cells [6]; NR8383, 5 μM drug): 10 ± 7.8%
% Reduction in Kp by NH4Cl (NR8383 cells [6]; NR8383, 20 µM drug): 6.6 ± 4.1%
% Reduction in CLuptake by NH4Cl (20 mM) (NR8383 cells [6]; NR8383, at 5 µM drug): 18 ± 15%
reduction in Kp in the presence of chemical agents (summary in Discussion) (NR8383 cells [6]): < 15%

CN(C)CCCN1c2ccccc2Sc2ccc(Cl)cc21 [Chlorpromazine]
Reduction in total uptake (%) [7]: 8%

CC(Cc1ccc(O)cc1)NCC(O)c1cc(O)cc(O)c1 (stereo not shown) [Fenoterol]
Acid–base Property [2]: Base
Kp at 10 min, 5 μM [3]: 5.69 ± 0.98
hepatocyte CLint at 5 μM ([3]; other cell line): < 1 µL/min/1e6 cells
Contribution of passive (%) (NR8383 cells [4]): 8.03%
Kp at 10 min, 5 μM ([5]; Kp + NH4Cl, 20 mM NH4Cl co-incubated, 10 min): 2.91 ± 2.11
Kp at 10 min, 20 µM ([5]; Kp + NH4Cl, 20 mM NH4Cl): 0.96 ± 0.33
Kp at 10 min, 5 μM ([5]; Kp Control, control): 4.25 ± 2.64
Kp at 10 min, 20 µM ([5]; Kp Control, control): 1.5 ± 0.93
% Reduction in Kp by NH4Cl (NR8383 cells [6]; NR8383, 5 μM drug): 31 ± 23%
% Reduction in Kp by Monensin (NR8383 cells [6]; NR8383, 5 μM drug, monensin 5 μM, 5 min): 27 ± 25%
% Reduction in Kp by Nigericin (NR8383 cells [6]; NR8383, 5 μM drug, nigericin 10 μM, 5 min): 30 ± 12%
% Reduction in Kp by NH4Cl (NR8383 cells [6]; NR8383, 20 µM drug): 27 ± 24%
% Reduction in CLuptake by Monensin (5 µM) (NR8383 cells [6]; NR8383, at 5 µM drug): 29 ± 21%
% Reduction in CLuptake by NH4Cl (20 mM) (NR8383 cells [6]; NR8383, at 5 µM drug): 36 ± 12%
% Reduction in CLuptake by Nigericin (10 µM) (NR8383 cells [6]; NR8383, at 5 µM drug): 25 ± 15%
% Reduction in CLuptake by NH4Cl (20 mM) (NR8383 cells [6]; NR8383, at 20 µM drug): 22 ± 28%
reduction in Kp in the presence of chemical agents (summary in Discussion) (NR8383 cells [6]): 20–40%
LogD7.4 [8, 23]: 0.74

CNCCC(Oc1ccc(C(F)(F)F)cc1)c1ccccc1 (stereo not shown) [Fluoxetine]
Reduction in total uptake (%) [9]: 41%
Reduction in total uptake (%) [10]: 21%
Reduction in total uptake (%) [11]: 39%
Reduction of total uptake (%) [12]: 23%

Cl.N [NH4Cl, ammonium chloride]
reduced LTR fluorescent signal (NR8383 cells [13]): up to 85%

CC(C)=CCN1CCC2(C)c3cc(O)ccc3CC1C2C (stereo not shown) [Pentazocine]
Reduction in total uptake (%) [7]: 77%

CN1CCN(CCCN2c3ccccc3Sc3ccccc32)CC1 [Perazine]
Reduction in total uptake (%) [11]: 58%
Reduction of total uptake (%) ([11]; monensin 10 µM): 71.6%
Reduction in total uptake (%) [14]: 55%
Reduction of total uptake (%) [14]: 55%
Reduction in total uptake (%) [15]: 61%
Reduction of total uptake (%) ([15]; monensin 10 µM): 65%

CC(CN1c2ccccc2Sc2ccccc21)N(C)C (stereo not shown) [Promethazine]
Reduction in total uptake (%) [7]: 17%

CO[C@H]1/C=C/O[C@@]2(C)Oc3c(C)c(O)c4c(O)c(c(/C=N/N5CCN(C)CC5)c(O)c4c3C2=O)NC(=O)/C(C)=C\C=C\[C@H](C)[C@H](O)[C@@H](C)[C@@H](O)[C@@H](C)[C@H](OC(C)=O)[C@@H]1C [Rifampicin]
Acid–base Property [2]: Zwitterion
LogD7.4 [8, 23]: 0.3
pKa_b (basic pKa) [8, 23]: 6.70

CN[C@H]1CC[C@@H](c2ccc(Cl)c(Cl)c2)c2ccccc21 [Sertraline]
Reduction in total uptake (%) [9]: 40%
Reduction in total uptake (%) [10]: 42%
Reduction in total uptake (%) [11]: 45%
Reduction of total uptake (%) [16]: 19%
Reduction of total uptake (%) [12]: 50%
Reduction in total uptake (%) [17]: 42%
Reduction in total uptake (%) [15]: 29%

CC(C)(C)NCC(O)c1cc(O)cc(O)c1 (stereo not shown) [Terbutaline]
Acid–base Property [2]: Base
hepatocyte CLint at 5 μM ([3]; NR8383 cells): < 1 µL/min/1e6 cells
Kp at 10 min, 5 μM [3, 19]: ~1
Kp (cell-to-medium concentration ratio) (NR8383 cells [4]; 37°C, 10 min): 0.69 ± 0.16
Contribution of passive (%) (NR8383 cells [4]): 47.6%
Kp at 10 min, 5 μM [5, 20]: 0.72 ± 0.31
Kp at 10 min, 20 µM [5, 21]: 0.56 ± 0.29
Kp at 10 min, 5 μM [5, 22]: 0.92 ± 0.39
Kp at 10 min, 20 µM [5, 22]: 0.79 ± 0.46
% Reduction in Kp by NH4Cl (NR8383 cells [6]; NR8383, 5 μM drug): 21 ± 5.0%
% Reduction in Kp by NH4Cl (NR8383 cells [6]; NR8383, 20 µM drug): 22^ a %
% Reduction in CLuptake by NH4Cl (20 mM) (NR8383 cells [6]; NR8383, at 5 µM drug): 15 ± 15%
% Reduction in CLuptake by NH4Cl (20 mM) (NR8383 cells [6]; NR8383, at 20 µM drug): 36 ± 23%
reduction in Kp in the presence of chemical agents (summary in Discussion) (NR8383 cells [6]): 20–40%
LogD7.4 ([8]; Average value of two studies, ref ([27],[28])): −1.50 ^b
pKa_a (acidic pKa) [8, 23]: 8.60
pKa_b (basic pKa) [8, 23]: 9.90

CCCC(C)C1(CC)C(=O)NC(=S)NC1=O (stereo not shown) [Thiopental]
Reduction of total uptake (%) [18]: 10%

CSc1ccc2c(c1)N(CCC1CCCCN1C)c1ccccc1S2 (stereo not shown) [Thioridazine]
Reduction in total uptake (%) [9]: 41%
Reduction of total uptake (%) ([9]; monensin 10 µM): 35%
Reduction in total uptake (%) [14]: 62%
Reduction of total uptake (%) [14]: 58%
Reduction in total uptake (%) [17]: 75%
Reduction of total uptake (%) ([17]; monensin 10 µM): 82%

C[N+]1(C)[C@@H]2C[C@@H](OC(=O)C(O)(c3cccs3)c3cccs3)C[C@H]1[C@@H]1O[C@@H]12 [Tiotropium bromide]
Acid–base Property [2]: Permanently cationic
Kp at 10 min, 5 μM [3, 19]: 8.74 ± 7.24
Contribution of passive (%) (NR8383 cells [4]): 16.3%
Kp at 10 min, 5 μM [5, 20]: 3.87 ± 2.61
Kp at 10 min, 20 µM [5, 21]: 2 ± 0.64
Kp at 10 min, 5 μM [5, 22]: 4.39 ± 2.9
Kp at 10 min, 20 µM [5, 22]: 2.4 ± 1
% Reduction in Kp by NH4Cl (NR8383 cells [6]; NR8383, 5 μM drug): 12 ± 1.8%
% Reduction in Kp by NH4Cl (NR8383 cells [6]; NR8383, 20 µM drug): 35 ± 26%
% Reduction in CLuptake by NH4Cl (20 mM) (NR8383 cells [6]; NR8383, at 5 µM drug): 15 ^a %
% Reduction in CLuptake by NH4Cl (20 mM) (NR8383 cells [6]; NR8383, at 20 µM drug): 28 ^a %
reduction in Kp in the presence of chemical agents (summary in Discussion) (NR8383 cells [6]): < 15%
